The structures appear in SMILES notation.

The experiment addresses P2Y12 (Homo sapiens, UniProt Q9H244). The experiment is described as follows: β-arrestin recruitment. Format: cell-based.

Sequence of P2Y12 (Q9H244 whole entry): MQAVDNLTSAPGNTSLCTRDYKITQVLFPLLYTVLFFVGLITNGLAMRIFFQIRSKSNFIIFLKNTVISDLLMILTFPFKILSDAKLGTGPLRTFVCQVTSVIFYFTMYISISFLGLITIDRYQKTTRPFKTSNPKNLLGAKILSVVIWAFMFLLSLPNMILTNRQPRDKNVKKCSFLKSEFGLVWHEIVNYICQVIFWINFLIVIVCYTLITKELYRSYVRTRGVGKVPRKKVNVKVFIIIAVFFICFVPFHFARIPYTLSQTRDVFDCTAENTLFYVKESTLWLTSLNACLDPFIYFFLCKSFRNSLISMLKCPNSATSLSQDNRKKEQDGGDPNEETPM

Compound `Nc1ncnc2c1ncn2[C@@H]1O[C@H](COP(=O)(O)OP(=O)(O)O)[C@@H](O)[C@H]1O` [ADP] displayed an EC50 of 5000 nM. For the compound `CCCCC/C=C\C\C=C/C=C/C=C/[C@@H](SC[C@H](N)C(=O)O)[C@@H](O)CCCC(=O)O` [LTE4], a half-maximal effect (EC50) was put at 0.013 nM.

The values above are taken from article PMC2982748 (Arteriosclerosis, thrombosis, and vascular biology, 2010).
